From patent US5688830A, “Treatment of neuropathic pain” (Syntex (U.S.A.) Inc., priority 1997, dated 1997)

Legend:
[1] = system: mechanical allodynia in rats; experiment: Mechanical allodynia in vivo assay (spinal nerve ligation); set-up: species or system rat
Experimental: This assay determines the effectiveness of compounds in relieving one of the symptoms of neuropathic pain produced by spinal nerve ligation, namely mechanical allodynia. The surgical procedure was performed essentially as described by Kim and Chung, Pain, (1992) 50:355-363. Briefly, the rats were anesthetized with an intraperitoneal dose of pentobarbital sodium (65 mg/kg) with additional doses of anesthetic given as needed. Each animal was then placed in a prone position, a 3 cm lateral incision was made, and the left paraspinal muscles separated from the spinous process at the L4 -S2 level. The L6 transverse process was then removed in order to visually identify the L4 -L6 spinal nerves. The L5 and L6 spinal nerves were then individually isolated and tightly ligated with silk thread. The wound was then closed in layers by silk sutures. Seven to 28 days post-surgery, a calibrated series of eight von Frey filaments were used to assess mechanical allodynia. Animals were housed individually in plexiglass cages with a wire mesh floor. Filaments of increasing stiffness were applied perpendicular to the midplantar surface in the sciatic nerve distribution areas of the left hindpaw and were slowly depressed (4-6 seconds) until bending occurred. The filament application order and number of trials were determined by the up-down method of Dixon (Chaplan, et al., J. Neurosci. Methods, (1994) 53:55-63). Flinching and licking of the paw and paw withdrawal on the ligated side were all considered positive responses. The 50% paw withdrawal threshold (g) was then calculated and compared to control. The doses for the acute and chronic studies were selected on the basis of prior assessment of the acute effects on the test compounds on the gross behavior in normal rats. Briefly, the rats were weighed and grouped into cages, dosed with the test compound, and observed continuously for changes in behavior. […] Pinna and corneal reflexes were tested by using a piece of natural hair from a brush that is attached to a glass rod. The righting reflexes were tested by placing the rat flat on its back, and recording the time it takes for the animal to right itself onto all four legs. The posture and gait were assessed by placing the rat on the floor.

[2] = system: voltage-gated sodium channels ([3H]BTX binding, rat dorsal root ganglion); experiment: [3H]BTX binding assay, rat dorsal root ganglion membranes
Experimental: (§1) The following assays characterize the interaction of the compounds of Formula I with ligand binding sites on voltage-gated sodium channels.
(§2) Frozen tissues were obtained from Pel-Freez Biologicals (Rogers, AR). Tissues were homogenized in 10 volumes of a Tris-sucrose buffer (10 mM Tris-HCl, 250 mM sucrose, pH 7.4 at 4° C.) using 10 strokes with a glass-glass, hand-held homogenizer. The homogenates were filtered through nylon mesh and then centrifuged at 1,000×g for 15 minutes. The pellets were resuspended in a Hepes buffer (50 mM Hepes, 130 mM choline chloride, 5 mM glucose, 5.4 mM KCl, pH 7.4 at 4° C.). The resuspended pellets were centrifuged at 1,000×g for 15 minutes, resuspended in a Hepes buffer (50 mM Hepes, 130 mM choline chloride, 5 mM glucose, 5.4 mM KCl, pH 7.4 at 25° C.) and, frozen at -70° C. until used in binding assays.
(§3) Cell membranes prepared as in Example 10A above were incubated with 16 nM [^3 H]BTX in 250 μl of Hepes buffer (50 mM Hepes, 130 mM choline chloride, 5 mM glucose, 5.4 mM KCl, pH 7.4 at 25° C.). Nonspecific binding was defined in the presence of 1 mM veratridine. Unless otherwise specified, PbTx (0.1 μM) and LqTx (50 μg/ml) were included in the assays. […] Filters were rinsed with 3×1 ml of ice cold 50 mM Tris-HCl (pH 7.4 at 4° C.) and the bound radioactivity was determined by scintillation counting (Packard Top-count).

[3] = system: local anesthetic site of the sodium channel in rat brain cortex membranes; experiment: [3H]PD85639 binding assay
Experimental: as §1, §2
Membranes as prepared in Example 10A above were incubated with 3 nM [^3 H]PD 85639 in 250 μl of Hepes buffer (50 mM Hepes, 130 mM choline chloride, 5 mM glucose, 5.4 mM KCl, pH 7.4 at 25° C. with Tris base). Nonspecific binding was defined in the presence of 0.1 mM PD85639. […] Filters were rinsed with 3×1 ml of ice cold 50 mM Tris-HCl (pH 7.4 at 4° C.) and the bound radioactivity was determined by scintillation counting (Packard Top-count).

[4] = system: human heart (hH1a) sodium channel; experiment: [14C]Guanidinium ion influx assay, human heart (hH1a) sodium channel in Chinese hamster lung cells; assay type: cell-based
Experimental: (§4) Chinese hamster ovary cells stably expressing the rat brain type IIA sodium channel subunit were maintained in RPMI 1640 with 10% fetal bovine serum and […] G-418. Chinese hamster lung cells stably expressing the human heart (hH1a) sodium channel subunit were maintained in DMEM with 5% fetal bovine serum and 300 μg/ml G-418. Both cells were subcultured and grown to confluence in 24-well plates 2-3 days before each experiment. After the growth medium was removed, the cells were washed with warm buffer (25 mM Hepes-Tris, 135 mM choline chloride, 5.4 mM potassium chloride, 0.98 mM magnesium sulfate, 5.5 mM glucose, and 1 mg/ml BSA, pH 7.4) and incubated in buffer on a 36° C. slide warmer for approximately 10 minutes. Various concentrations of the test compounds or standard sodium channel blockers (10 μl) and then veratridine (100 μM) were added to each well. After the cells were exposed to veratridine for 5 minutes, 5 μM of [^14 C]guanidinium was added, incubated with the radioligand, washed with 4 ml of ice-cold buffer, and dissolved in 0.1N sodium hydroxide. The radioactivity and the protein concentration of each cell lysate were determined by liquid scintillation counting and the protein assay using Pierce BCA reagent.

[5] = system: rat brain type IIA sodium channel; experiment: [14C]Guanidinium ion influx assay, rat brain type IIA sodium channel in CHO cells; assay type: cell-based
Experimental: as §4

[6] = system: neuropathic pain models; experiment: Neuropathic pain models / standard assays (summary statements); assay type: in vivo; settings: vs methylamine and propylamine analogues and isomers thereof
[7] = system: voltage-gated sodium channels ([3H]BTX binding, rat heart); experiment: [3H]BTX binding assay, rat heart membranes
Experimental: as §1, §2, §3

[8] = system: [3H]STX binding site on the rat brain sodium channel; experiment: [3H]STX binding assay
Experimental: as §1, §2
Membranes as prepared in Example 10A above were incubated at 37° C. for 30 minutes in 250 μl of a Hepes buffer (50 mM Hepes, 130 mM choline chloride, 5.5 mM glucose, 0.8 mM MgSO4, 5.4 mM KCl, pH 7.4 at 37° C.) containing 1 nM [^3 H]STX. Nonspecific binding was defined with 1 μM tetrodotoxin (TTX). […] The filters were rinsed with 3×1 ml ice cold H2 O and the bound radioactivity determined in a Packard 1900 liquid scintillation counter using Aquasol scintillation fluid.

[9] = mechanical allodynia, subcutaneous

CCN[C@H](C)COc1c(C)cccc1C [Formula I (R)-, (R)-[2-(2,6-dimethylphenoxy)-1-methylethyl]-ethylamine]
maximal analgesic activity (Emax) [1, 9]: 98%
maximal analgesic activity, comparison ([1]; mechanical allodynia, subcutaneous, vs racemates of I, II and III): significantly greater maximal analgesic activity
analgesia against mechanical allodynia ([1]; oral administration): did not produce analgesia

CCNC(C)COc1c(C)cccc1C (racemic) [Formula I racemate, [2-(2,6-dimethylphenoxy)-1-methylethyl]-ethylamine]
inhibition of [3H]BTX binding [2]: inhibited
inhibition of [3H]PD85639 binding to the local anesthetic site [3]: inhibited
ED50 ([1]; Rattus norvegicus, sc, mechanical allodynia, subcutaneous): 12.6 mg/kg
EDmax [1, 9]: 66%
maximal analgesic activity (Emax) [1, 9]: 66%
potency (ED50) comparison ([1]; mechanical allodynia, subcutaneous, in words): considerably more potent (ED50) than II or III
inhibition of veratridine-stimulated [14C]Guanidinium ion influx [4]: inhibited
inhibition of veratridine-stimulated [14C]Guanidinium ion influx [5]: inhibited
activity in standard assays compared with close analogues [6]: unexpectedly more active
inhibition of [3H]BTX binding [7]: inhibited
affinity for the [3H]STX binding site [8]: no detectable affinity
